Data: PubChem BioAssay (NCI)
“And” between values parts separate entries of the source, which are not always exact repeats. Equal entries are not always repeated.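 Following 48 hours of exposure in 96-well plates, responses at five concentrations were used to interpolate endpoints linearly. At the GI50, growth is halved. TGI denotes the concentration required for complete inhibition of growth.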

Columns and labels:
Assay in all cases: NCI tumour cell line growth inhibition, 48 h
A498 renal = test system: A498 renal
A549 NSCLC = test system: A549 NSCLC
DU-145 prostate = test system: DU-145 prostate
HOP-62 NSCLC = test system: HOP-62 NSCLC
HT29 colon = test system: HT29 colon
NCI-H23 lung = test system: NCI-H23 lung
NCI-H460 lung = test system: NCI-H460 lung
NCI-H522 lung = test system: NCI-H522 lung
NCI/ADR-RES ovarian = test system: NCI/ADR-RES ovarian
OVCAR-3 ovarian = test system: OVCAR-3 ovarian
EKVX NSCLC = test system: EKVX NSCLC

SMILES	TGI (A498 renal) [µM]	TGI (A549 NSCLC) [µM]	TGI (DU-145 prostate)	TGI (HOP-62 NSCLC)	TGI (HT29 colon)	TGI (NCI-H23 lung)	TGI (NCI-H460 lung)	TGI (NCI-H522 lung) [µM]	TGI (NCI/ADR-RES ovarian) [µM]	TGI (OVCAR-3 ovarian)	TGI (EKVX NSCLC)	GI50 (A549 NSCLC) [µM]	GI50 (EKVX NSCLC) [µM]	GI50 (NCI-H460 lung) [µM]	GI50 (NCI/ADR-RES ovarian) [µM]
COC1C(OC(C)=O)CC(=O)OC(C)C/C=C/C=C\C(O)C(C)CC(CC=O)C1OC1OC(C)C(OC2CC(C)(O)C(OC(=O)CC(C)C)C(C)O2)C(N(C)C)C1O (stereo not drawn)	> 100	> 100	> 100 µM	> 100 µM	> 100 µM	> 100 µM	> 100 µM	> 100	> 100	> 100 µM					
C#CCOC(=O)[C@@H](C)c1ccc2cc(OC)ccc2c1	> 100		> 100 µM	> 100 µM		> 100 µM	> 100 µM	> 100	> 100		> 100 µM				
CCOC(OCC)[C@H](N)[C@@H](O)[C@@H](O)[C@H]1COC(C)(C)O1	> 100	> 100	> 100 µM	> 100 µM	> 100 µM	> 100 µM			> 100	> 100 µM	> 100 µM				
N#Cc1c2ccc([N+](=O)[O-])cc2c(=O)n2c1sc1ccccc12	56.4	28.5	> 100 µM		> 100 µM	43 µM	> 100 µM		66.3						
COc1ccc2[nH]c3c(C)c4ncccc4c(C)c3c2c1		4.88	> 10 µM	> 10 µM	6.98 µM	> 10 µM	5.46 µM	> 10	> 10	9.09 µM	> 10 µM				
Cc1nn(C(=O)c2ccncc2)c2c1C(c1ccc([N+](=O)[O-])cc1)SC(N)=N2 (stereo not drawn)	> 100	> 100	> 100 µM	> 100 µM	> 100 µM	> 100 µM	> 100 µM		> 100	> 100 µM	> 100 µM				
CO/N=C(\C(=O)[N-][n+]1cnn(CC(=O)O)c1)c1csc(N)n1		> 10	> 10 µM	> 10 µM	> 10 µM	> 10 µM	> 10 µM				> 10 µM				
COc1cc(C2SCC(=O)N2NC(=O)c2ccc(NC(C)=O)cc2OC)ccc1O (stereo not drawn)	> 100	> 100	> 100 µM	36.7 µM	> 100 µM	> 100 µM		> 100	> 100	> 100 µM	> 100 µM				
O=C1CN(c2ccccc2)C(=O)CN1CCN1CC(=O)N(c2ccccc2)CC1=O	> 100	> 100	> 100 µM	> 100 µM	> 100 µM	> 100 µM	> 100 µM	> 100		> 100 µM	> 100 µM				
COc1ccc2c(c1)C(=O)[C@@](Nc1ccc(C=O)cc1)(OC)[C@@](OC)(c1ccc([N+](=O)[O-])cc1)O2	> 10	> 10	> 10 µM	> 10 µM	> 10 µM	> 10 µM	> 10 µM		> 10	> 10 µM	> 10 µM				
CS(=O)(=O)CCC(N)P(=O)(O)O (stereo not drawn)		> 100	> 100 µM	> 100 µM	> 100 µM	> 100 µM	> 100 µM	> 100	> 100	> 100 µM	> 100 µM				
CN(C(=O)c1ccc(Cl)cc1)C(=S)N1CCN(c2ccccc2)CC1		> 100	> 100 µM		> 100 µM	> 100 µM	> 100 µM	> 100		> 100 µM					
O=C(N[C@@H](Cc1ccccc1)B(O)O)[C@H](Cc1cccc2ccccc12)NC(=O)N1CCOCC1	0.212	0.47	0.403 µM and 0.527 µM	0.0316 µM and 0.0488 µM	0.0105 µM and 0.0106 µM	0.00899 µM and 0.0101 µM	0.106 µM and 0.0579 µM		> 100	0.00255 µM and 0.0196 µM	0.923 µM and 3.66 µM	0.0123	0.129	0.0172	7.31
CC1=CC(=O)/C(=C/N2C(=O)CNC2=S)C(=O)O1		> 100	> 100 µM	> 100 µM	> 100 µM	> 100 µM	> 100 µM		> 100	> 100 µM	> 100 µM				
CC(C)(C)OC(=O)N1CCC(NC(=O)NC2CCN(C(=O)OC(C)(C)C)CC2)CC1	> 100	> 100		> 100 µM	> 100 µM	> 100 µM	> 100 µM	> 100	> 100	> 100 µM	> 100 µM				
O=C1NC(N2CCCCC2)=N/C1=C\c1ccccc1		> 100	> 100 µM	> 100 µM	> 100 µM	> 100 µM		> 100	> 100	> 100 µM	> 100 µM				
C(/C=C/Nc1ccc(-c2ccccc2)cc1)=Nc1ccc(-c2ccccc2)cc1		> 100	> 100 µM	> 100 µM	> 100 µM	> 100 µM	> 100 µM	> 100	> 100	> 100 µM	> 100 µM				
Cn1c(O)c(C=Nc2ccc(Cl)cc2Cl)c(=O)n(C)c1=O	> 100	> 100		> 100 µM	> 100 µM	> 100 µM	> 100 µM	> 100	> 100	> 100 µM	> 100 µM				
CCN(CCCl)c1cc(CN(C)C)cc(NC(=O)c2ccc(C(=O)Nc3ccccc3)cc2)c1	1.8	11.9	6.92 µM	3.21 µM	0.414 µM	1.27 µM	1.27 µM	0.317	11.4						
CC1(C)/C(=N\Nc2ccc([N+](=O)[O-])cc2[N+](=O)[O-])C2CCC1C2 (stereo not drawn)		> 100	> 100 µM	> 100 µM	> 100 µM	> 100 µM	> 100 µM	> 100	> 100	> 100 µM	> 100 µM				
Clc1nc(Nc2nc3ccccc3[nH]2)nc(Cl)c1-c1ccccc1	60.6	> 100	> 100 µM		34.9 µM	58.4 µM	28.7 µM	42.5	92.7		71.4 µM				
COC(=O)/C=C/c1cnc2c(c1)oc(=O)n2C	> 100	> 100	> 100 µM	> 100 µM	> 100 µM	> 100 µM	> 100 µM		> 100	> 100 µM	> 100 µM				
